From patent US20240301319A1, “PERFUMING COMPOSITIONS” (FIRMNICH SA, priority 2017, published 2024)
Where two headings read alike, the source gives them in different places.

Columns and labels:
[1] = Volatility of perfuming compounds (Tables 4 to 10), with top/middle/bottom note type; assay type: physicochemical
Description: In some aspects, the first perfume accord comprises perfuming compounds having a volatility ranging from 70,000 to 100 μg/l in air. In some aspects, perfuming compounds having a volatility ranging from 70,000 to 100 μg/l in air are referred to as “top notes”.
In some aspects, the second perfume accord comprises perfuming compounds having a volatility ranging from 99 to 50 μg/l in air. In some aspects, perfuming compounds having a volatility ranging from 99 to 50 μg/l in air are referred to as “middle notes”.
In some aspects, the third perfume accord comprises perfuming compounds having a volatility ranging from 49 to 0.1 μg/l in air. In some aspects, perfuming compounds having a volatility ranging from 49 to 0.1 μg/l in air are referred to as “bottom notes”.
Tables 4 to 10 describe top, middle and bottom note perfuming compounds for watery, green, fruity, citrus, sweet, gourmand and woody notes respectively.

[2] = Odor threshold and odor value of perfuming compounds (Tables 4 to 10)
[3] = Table 4, watery note, top, middle or bottom note
[4] = Table 4, watery note, equals volatility divided by odor threshold
[5] = note type (Top/Middle/Bottom) by volatility, perfuming compounds having a green note
[6] = perfuming compounds having a green note
[7] = Table 10, perfuming compounds having a woody note, note type by volatility
[8] = Table 8, perfuming compounds having a sweet note
[9] = Table 8, perfuming compounds having a sweet note, note type by volatility
[10] = Table 6, perfuming compounds having a fruity note
[11] = Table 6, perfuming compounds having a fruity note, note type by volatility

## CC(C)c1ccc2c(c1)OCC(=O)CO2 [7-ISOPROPYL-2H,4H-1,5-BENZODIOXEPIN-3-ONE]
[1]; Table 4, watery note
  Volatility (μg/l air): 56.74 μg/l air
[1]; [3]
  Type: middle (perfuming compounds having a volatility ranging from 99 to 50 μg/l in air are referred to as “middle notes”)
[2]; Table 4, watery note
  Odor Threshold (μg/l air): 3.20E−06 μg/l air
[2]; [4]
  Odor Value: 1.77E+07

## CC1=CCC(C(C)C)=CC1 [1-methyl-4-(2-propanyl)-1,4-cyclohexadiene]
[1]; Table 7, citrus note
  Volatility (μg/l air): 4298.67 μg/l air
[1]; Table 7, citrus note, top, middle or bottom note
  Type: Top
[2]; Table 7, citrus note
  Odor Threshold (μg/l air): 1.16E−01 μg/l air
[2]; Table 7, citrus note, equals volatility divided by odor threshold
  Odor Value: 3.70E+04

## CCCCSCCCC [DIBUTYL SULFIDE]
[1]; [5]
  Type: Top
[1]; [6]
  Volatility (μg/l air): 2766.10 μg/l air
[2]; [6]
  Odor Threshold (μg/l air): 2.34E−02 μg/l air

## CCCc1ccc2c(c1)OCC(=O)CO2 [7-PROPYL-2H,4H-1,5-BENZODIOXEPIN-3-ONE]
[1]; Table 4, watery note
  Volatility (μg/l air): 4.85 μg/l air
[1]; [3]
  Type: bottom (perfuming compounds having a volatility ranging from 49 to 0.1 μg/l in air are referred to as “bottom notes”)
[1]; [5]
  Type: Bottom
[1]; [6]
  Volatility (μg/l air): 4.85 μg/l air
[2]; Table 4, watery note
  Odor Threshold (μg/l air): 6.43E−05 μg/l air
[2]; [4]
  Odor Value: 7.54E+04
[2]; [6]
  Odor Threshold (μg/l air): 6.43E−05 μg/l air

## CC1=CCC(C(C)(C)O)CC1 (racemic) [(+−)-ALPHA-TERPINEOL]
[1]; [7]
  Type: Top
[1]; Table 10, woody note
  Volatility: 172.78 μg/l air
[2]; Table 10, woody note
  Odor Threshold: 1.03E−01 μg/l air

## CCCCCCCCCCCC=O [DODECANAL]
[1]; Table 4, watery note
  Volatility (μg/l air): 144.79 μg/l air
[1]; [3]
  Type: TOP (perfuming compounds having a volatility ranging from 70,000 to 100 μg/l in air are referred to as “top notes”)
[2]; Table 4, watery note
  Odor Threshold (μg/l air): 9.90E−04 μg/l air
[2]; [4]
  Odor Value: 1.46E+05

## CC(=O)O[C@@H]1C(C)(C)CCC[C@]12CC=C(C)C[C@H]2C (racemic)
[1]; [7]
  Type: Bottom
[1]; Table 10, woody note
  Volatility: 8.25 μg/l air
[2]; Table 10, woody note
  Odor Threshold: 3.79E−03 μg/l air

## O=C1CCCCCCCCCCC(=O)OCCO1 [1,4-dioxacyclohexadecane-5,16-dione]
[1]; [8]
  Volatility: 0.46 μg/l air
[1]; [9]
  Type: Bottom
[2]; [8]
  Odor Threshold: 7.05E−04 μg/l air
  Odor Value: 6.55E+02

## COC(C)(C)[C@H]1CC=C(C)CC1
[1]; [5]
  Type: Top
[1]; [6]
  Volatility (μg/l air): 993.39 μg/l air
[2]; [6]
  Odor Threshold (μg/l air): 1.99E−01 μg/l air

## CC1CC[C@@]2(O1)C(C)(C)CCC[C@@]2(C)O (mixture of isomers)
[1]; [7]
  Type: Middle
[1]; Table 10, woody note
  Volatility: 84.04 μg/l air
[2]; Table 10, woody note
  Odor Threshold: 5.15E−04 μg/l air

## CC(C=O)Cc1ccc(C(C)C)cc1 (racemic) [(+−)-3-(4-isopropylphenyl)-2-methylpropanal]
[1]; Table 4, watery note
  Volatility (μg/l air): 24.85 μg/l air
[1]; [3]
  Type: bottom (perfuming compounds having a volatility ranging from 49 to 0.1 μg/l in air are referred to as “bottom notes”)
[2]; Table 4, watery note
  Odor Threshold (μg/l air): 3.00E−03 μg/l air
[2]; [4]
  Odor Value: 8.28E+03

## CCCCC[C@@H]1OC(=O)C[C@H]1C (racemic) [(+−)-TRANS-3-METHYL-4-NONANOLIDE]
[1]; [10]
  Volatility: 21.05 μg/l air
[1]; [11]
  Type: Bottom
[1]; [8]
  Volatility: 21.05 μg/l air
[1]; [9]
  Type: Bottom
[1]; Table 9, gourmand note
  Volatility: 21.05 μg/l air
[1]; Table 9, perfuming compounds having a gourmand note, note type by volatility
  Type: Bottom
[2]; [10]
  Odor Threshold: 8.33E−04 μg/l air
  Odor Value: 2.53E+04
[2]; [8]
  Odor Threshold: 8.33E−04 μg/l air
  Odor Value: 2.53E+04
[2]; Table 9, gourmand note
  Odor Threshold: 8.33E−04 μg/l air

## CC(=O)OCC=C(C)C [3-methyl-2-buten-1-yl acetate]
[1]; [10]
  Volatility: 27705.98 μg/l air
[1]; [11]
  Type: TOP (perfuming compounds having a volatility ranging from 70,000 to 100 μg/l in air are referred to as “top notes”)
[1]; [5]
  Type: Top
[1]; [6]
  Volatility (μg/l air): 27705.98 μg/l air
[2]; [6]
  Odor Threshold (μg/l air): 5.58E−02 μg/l air

## CC(C)Cc1ccc2ccccc2n1 [2-ISOBUTYLQUINOLINE]
[1]; [8]
  Volatility: 8.73 μg/l air
[1]; [9]
  Type: Bottom
[2]; [8]
  Odor Threshold: 1.93E−04 μg/l air
  Odor Value: 4.53E+04

## CC(C)C(=O)OCCOc1ccccc1 [2-phenoxyethyl 2-methylpropanoate]
[1]; [10]
  Volatility: 10.05 μg/l air
[1]; [11]
  Type: Bottom
[1]; [5]
  Type: Bottom
[1]; [6]
  Volatility (μg/l air): 10.05 μg/l air
[2]; [10]
  Odor Threshold: 3.01E−02 μg/l air
  Odor Value: 3.34E+02
[2]; [6]
  Odor Threshold (μg/l air): 3.01E−02 μg/l air

## CCCC1CCC(O)C(OC)C1 (stereo not shown) [2-METHOXY-4-PROPYL-1-CYCLOHEXANOL]
[1]
  Volatility (μg/l air): 189.74 μg/l air
[1]; [5]
  Type: Top
[2]; [6]
  Odor Threshold (μg/l air): 2.85E−02 μg/l air

## CCCCCCC=O [HEPTANAL]
[1]; [5]
  Type: Top
[1]; [6]
  Volatility (μg/l air): 22184.00 μg/l air
[2]; [6]
  Odor Threshold (μg/l air): 2.03E−03 μg/l air

## CCCCCCO [1-hexanol]
[1]; [5]
  Type: Top
[1]; [6]
  Volatility (μg/l air): 2070.00 μg/l air
[2]; [6]
  Odor Threshold (μg/l air): 1.17E−01 μg/l air

## CC(=O)/C=C/C1C(C)CCC(C)C1(C)C (racemic)
[1]; [7]
  Type: Bottom
[1]; Table 10, woody note
  Volatility: 20.50 μg/l air
[2]; Table 10, woody note
  Odor Threshold: 5.14E−04 μg/l air

## C/C=C(\C)C(=O)OCCCCCC [hexyl (2E)-2-methyl-2-butenoate]
[1]; [10]
  Volatility: 256.81 μg/l air
[1]; [11]
  Type: TOP (perfuming compounds having a volatility ranging from 70,000 to 100 μg/l in air are referred to as “top notes”)
[1]; [8]
  Volatility: 256.81 μg/l air
[1]; [9]
  Type: Top
[1]; [5]
  Type: Top
[1]; [6]
  Volatility (μg/l air): 256.81 μg/l air
[2]; [8]
  Odor Threshold: 1.16E−02 μg/l air
  Odor Value: 2.22E+04
[2]; [6]
  Odor Threshold (μg/l air): 1.16E−02 μg/l air

## CC(=O)OC/C=C(\C)CCC=C(C)C [(E)-3,7-DIMETHYL-2,6-OCTADIENYL ACETATE]
[1]; [11]
  Type: Middle
[1]; [5]
  Type: Middle
[1]; [6]
  Volatility (μg/l air): 79.23 μg/l air
[2]; [10]
  Odor Threshold: 3.57E−02 μg/l air
[2]; [6]
  Odor Threshold (μg/l air): 3.57E−02 μg/l air

## COC(=O)c1c(C)cc(O)c(C)c1O [METHYL 2,4-DIHYDROXY-3,6-DIMETHYLBENZOATE]
[1]; Table 4, watery note
  Volatility (μg/l air): 1.52 μg/l air
[1]; [3]
  Type: bottom (perfuming compounds having a volatility ranging from 49 to 0.1 μg/l in air are referred to as “bottom notes”)
[2]; Table 4, watery note
  Odor Threshold (μg/l air): 4.89E−06 μg/l air
[2]; [4]
  Odor Value: 3.11E+05

## CC(C)=CCCC(C)CCCC(C)C=O (racemic)
[1]; Table 4, watery note
  Volatility (μg/l air): 18.23 μg/l air
[1]; [3]
  Type: bottom (perfuming compounds having a volatility ranging from 49 to 0.1 μg/l in air are referred to as “bottom notes”)
[2]; Table 4, watery note
  Odor Threshold (μg/l air): 1.59E−02 μg/l air
[2]; [4]
  Odor Value: 1.15E+03

## CCC(=CCC1CC=C(C)C1(C)C)CO (racemic)
[1]; [7]
  Type: Bottom
[1]; Table 10, woody note
  Volatility: 3.69 μg/l air
[2]; Table 10, woody note
  Odor Threshold: 7.80E−05 μg/l air

## CC/C=C\CC/C=C/CO [(2E,6Z)-2,6-NONADIEN-1-OL]
[1]; Table 4, watery note
  Volatility (μg/l air): 98.76 μg/l air
[1]; [3]
  Type: middle (perfuming compounds having a volatility ranging from 99 to 50 μg/l in air are referred to as “middle notes”)
[1]; [5]
  Type: Middle
[1]; [6]
  Volatility (μg/l air): 98.76 μg/l air
[2]; Table 4, watery note
  Odor Threshold (μg/l air): 3.22E−06 μg/l air
[2]; [4]
  Odor Value: 3.07E+07
[2]; [6]
  Odor Threshold (μg/l air): 3.22E−06 μg/l air

## COc1nccnc1CCCC(C)C
[1]; [5]
  Type: Top
[1]; [6]
  Volatility (μg/l air): 195.24 μg/l air
[2]; [6]
  Odor Threshold (μg/l air): 1.18E−07 μg/l air

## C=C1C2CCC(C)(OCC)C1CCC2(C)C (racemic)
[1]; [7]
  Type: Top
[1]; Table 10, woody note
  Volatility: 135.00 μg/l air
[2]; Table 10, woody note
  Odor Threshold: 1.37E−01 μg/l air

## CC/C=C\CCOC(=O)CCC [(3Z)-3-hexen-1-yl butyrate]
[1]; [10]
  Volatility: 1674.15 μg/l air
[1]; [11]
  Type: TOP (perfuming compounds having a volatility ranging from 70,000 to 100 μg/l in air are referred to as “top notes”)
[1]; [5]
  Type: Top
[1]; [6]
  Volatility (μg/l air): 1674.15 μg/l air
[2]; [6]
  Odor Threshold (μg/l air): 7.85E−02 μg/l air
